Results from patent US6476030B1, “Pyrazolo-triazine derivatives as ligands for GABA receptors” (Merck Sharp & Dohme Ltd., priority 1998, dated 2002).

Row | melting point | SMILES
1 | 182 to 183 °C | CCn1ncnc1COc1nn2c(-c3ccccc3F)nncc2c1-c1ccco1 [Example 91, 2-(2-Ethyl-2H-[1,2,4]triazol-3-ylmethoxy)-7-(2-fluorophenyl)-3-(furan-2-yl)pyrazolo[1,5-d][1,2,4]triazine]
2 | 190 to 192 °C | CCn1ncnc1COc1nn2c(-c3ccccc3F)nncc2c1-c1cccs1 [Example 92, 2-(2-Ethyl-2H-[1,2,4]triazol-3-ylmethoxy)-7-(2-fluorophenyl)-3-(thien-2-yl)pyrazolo[1,5-d][1,2,4]triazine]
3 | 187 to 193 °C | CCn1ncnc1COc1nn2c(-c3ccccc3F)nncc2c1-c1ccsc1 [Example 93, 2-(2-Ethyl-2H-[1,2,4]triazol-3-ylmethoxy)-7-(2-fluorophenyl)-3-(thien-3-yl)pyrazolo[1,5-d][1,2,4]triazine]
4 | 194 to 196 °C | Cn1ncnc1COc1nn2c(-c3ccccc3F)nncc2c1-c1cccc(C#N)c1 [Example 97, 3-(3-Cyanophenyl)-7-(2-fluorophenyl)-2-(2-methyl-2H-[1,2,4]triazol-3-ylmethoxy)pyrazolo[1,5-d][1,2,4]triazine]

Further lines, the compound ahead of its results:

Row | SMILES | melting point
5 | Cn1ncnc1COc1nn2c(-c3ccccc3Cl)nncc2c1-c1ccccc1F [Example 88, 7-(2-Chlorophenyl)-3-(2-fluorophenyl)-2-(2-methyl-2H-[1,2,4]triazol-3-ylmethoxy)pyrazolo[1,5-d][1,2,4]triazine] | 155 to 157 °C
6 | Cn1ncnc1COc1nn2c(C3CC3)nncc2c1-c1ccccc1F [Example 89, 7-Cyclopropyl-3-(2-fluorophenyl)-2-(2-methyl-2H-[1,2,4]triazol-3-ylmethoxy)pyrazolo[1,5-d][1,2,4]triazine] | 97 to 99 °C
7 | Cc1cc(COc2nn3c(-c4ccccc4F)nncc3c2-c2ccccc2F)nn1C [Example 90, 3,7-bis(2-Fluorophenyl)-2-(1,5-dimethyl-1H-pyrazol-3-ylmethoxy)-pyrazolo[1,5-d][1,2,4]triazine] | 183 °C
8 | Cn1ncnc1COc1nn2c(-c3ccccc3F)nncc2c1-c1cccc(-c2cccnc2)c1 [Example 95, 7-(2-Fluorophenyl)-2-(2-methyl-2H-[1,2,4]triazol-3-ylmethoxy)-3-[3-(pyridin-3-yl)phenyl]pyrazolo[1,5-d][1,2,4]triazine] | 157 to 163 °C
9 | Cn1ncnc1COc1nn2c(-c3ccccc3F)nncc2c1I [Example 96, 7-(2-Fluorophenyl)-3-iodo-2-(2-methyl-2H-[1,2,4]triazol-3-ylmethoxy)-pyrazolo[1,5-d][1,2,4]triazine] | 218 to 219 °C
